Entries after “also recorded” stand apart in the source; their conditions may differ.
How the values were obtained:
[1] = tested on: Dictyostelium pten− cells; conditions: for cytotoxicity for Dictyostelium pten− cells: 5 μM statin, three day period (17, 41, 65 hours); for time after drug treatment at which cell death started to occur: pten− cells; for growth of pten− cells compared to DMSO control: three day period
Method: Cells were treated with 5 μM fluvastatin or DMSO. Images were taken 17 hours (left), 41 hours (middle), and 65 hours (right) after drug treatment.
Seven statins currently available on the market were tested for cytotoxicity on pten− cells. The graph quantifies growth of cells treated with 5 μM of statins or DMSO control over a three day period. Blue, orange, and yellow bars represent relative cell counts 17 hours, 41 hours, and 65 hours after drug treatment.
Statins are inhibitors of HMG-CoA reductase, the rate-controlling enzyme of the mevalonate pathway.

[2] = tested on: Dictyostelium pten− cells; test: Phenotypic screen of the Johns Hopkins drug library on growth of pten− cells; assay type: cell-based; conditions: hits validated independently with purchased compounds
From the text: (§1) FIG. 7 is a diagram showing the process of drug library screen. […] Secondary screen confirmed nine compounds with effects selective for pten− but not wild-type cells.
(§2) The John Hopkins Drug Library contains 2560 drugs that are either FDA approved, have been proven in other countries for treating human diseases, or have entered phase II clinical trials. […] These compounds fell into several classes: certain phenothiazines (promazine, chlorpromazine, and thioridazine), certain antibiotics (polymyxin and chloroxine), certain statins (fluvastatin and pitavastatin), and others (benfluorex and phenazopyridine). All of the hits were validated independently with purchased compounds and repeating the experiments.

[3] = tested on: wild type cells; test: Phenotypic screen of the Johns Hopkins drug library, wild-type counter-screen; assay type: cell-based, Dictyostelium; conditions: library screen hits
From the text: as §1, §2

[4] = tested on: wild type cells; test: Statin growth test on wild type cells; assay type: cell-based, Dictyostelium
Method: Cells were treated with 5 μM fluvastatin or DMSO.

[5] = tested on: MCF10-A harboring oncogenic PIK3CA mutations; test: Growth of mammary epithelial cells with oncogenic PIK3CA mutations under compound treatment; assay type: cell-based, human; conditions: 5 μM
Method: (§3) To test whether the hits from the drug screen targeted human pre-metastatic cells, the growth of the human mammary epithelial cell lines MCF-10A, MCF-10A with homozygous pten deletion (pten−/−), or MCF10-A harboring oncogenic PIK3CA mutations under compound treatment were measured.

[6] = tested on: MCF-10A with homozygous pten deletion (pten−/−); test: Growth of mammary epithelial cells with homozygous pten deletion under compound treatment; assay type: cell-based, human; conditions: 5 μM
Method: (§4) MCF-10A or pten−/− cells were treated with DMSO control or 5 μM pitavastatin. Upper and lower panels show 44 hours and 68 hours after drug treatment.
(§5) Cells were treated with DMSO control or 5 μM drugs. Blue, orange, and yellow bars represent 20 hours, 44 hours, and 68 hours after drug treatment.
as §3

[7] = tested on: MCF-10A cells; test: Growth of parental mammary epithelial cells under compound treatment; assay type: cell-based, human; conditions: 5 μM
Method: as §4, §5, §3

[8] = tested on: pten−/− cells; test: Add-back experiments (MVA, GGPP, cholesterol) with pitavastatin; assay type: cell-based, human

Compound | cytotoxicity for Dictyostelium pten− cells [1] | effect on growth or survival of pten− cells in the library screen [2] | effect on morphology and growth of wild type cells [3] | other results
CC(C)c1c(C(=O)Nc2ccccc2)c(-c2ccccc2)c(-c2ccc(F)cc2)n1CC[C@@H](O)C[C@@H](O)CC(=O)O [atorvastatin] | well tolerated | – | – | –
CC(Cc1cccc(C(F)(F)F)c1)NCCOC(=O)c1ccccc1 (stereo not drawn) [benfluorex] | – | selectively slow down the growth of or kill pten− cells | little or no effect | –
Oc1c(Cl)cc(Cl)c2cccnc12 [chloroxine] | – | selectively slow down the growth of or kill pten− cells | little or no effect | –
CN(C)CCCN1c2ccccc2Sc2ccc(Cl)cc21 [chlorpromazine] | – | selectively slow down the growth of or kill pten− cells | little or no effect | –
CC(C)n1c(/C=C/C(O)CC(O)CC(=O)O)c(-c2ccc(F)cc2)c2ccccc21 (stereo not drawn) [fluvastatin] | high cytotoxicity; also recorded: higher efficacy compared to all other statins | selectively slow down the growth of or kill pten− cells | little or no effect | growth of wild type cells treated with the statins [4]: no significant growth defect; growth and survival of Dictyostelium pten− cells (FIG. 8) ([1]; 5 μM, images 17, 41 and 65 hours after treatment): selectively affected the growth and survival; time after drug treatment at which cell death started to occur [1]: around 40 hours; growth of pten− cells compared to DMSO control [1]: grew much slower
CC[C@H](C)C(=O)O[C@H]1C[C@@H](C)C=C2C=C[C@H](C)[C@H](CC[C@@H]3C[C@@H](O)CC(=O)O3)[C@H]21 [lovastatin] | well tolerated | – | – | –
Nc1ccc(/N=N/c2ccccc2)c(N)n1 [phenazopyridine] | – | selectively slow down the growth of or kill pten− cells | little or no effect | –
O=C(O)C[C@H](O)C[C@H](O)/C=C/c1c(C2CC2)nc2ccccc2c1-c1ccc(F)cc1 [pitavastatin] | high cytotoxicity; also recorded: higher efficacy compared to all other statins | selectively slow down the growth of or kill pten− cells | little or no effect | cell death in PIK3CA knock-in cells [5]: extensive cell death; cell growth of PIK3CA knock-in cells [5]: marked reduction in cell growth; cell growth of MCF-10A pten−/− cells ([6]; 20, 44, 68 hours): selectively inhibited the growth and survival; also recorded: marked reduction in cell growth; cell death in MCF-10A pten−/− cells ([6]; 44 and 68 hours): cell death induced; also recorded: extensive cell death; growth of wild type cells treated with the statins [4]: no significant growth defect; reduction in cell growth and cell death in parental MCF-10A cells [7]: not MCF-10A cells; effects of pitavastatin with supplementation of cholesterol [8]: not cholesterol; effects of pitavastatin with supplementation of GGPP ([8]; increasing doses of pitavastatin, with or without GGPP): blocked the toxic effects; also recorded: completely blocked; effects of pitavastatin with supplementation of mevalonic acid (MVA) ([8]; increasing doses of pitavastatin, with or without MVA): blocked the toxic effects; also recorded: completely blocked; time after drug treatment at which cell death started to occur [1]: around 40 hours; growth of pten− cells compared to DMSO control [1]: grew much slower
CC[C@H](C)C(=O)O[C@H]1C[C@H](O)C=C2C=C[C@H](C)[C@H](CC[C@@H](O)C[C@@H](O)CC(=O)O)[C@H]21 [pravastatin] | well tolerated | – | – | –
CN(C)CCCN1c2ccccc2Sc2ccccc21 [promazine] | – | selectively slow down the growth of or kill pten− cells | little or no effect | –
CC(C)c1nc(N(C)S(C)(=O)=O)nc(-c2ccc(F)cc2)c1/C=C/[C@@H](O)C[C@@H](O)CC(=O)O [rosuvastatin] | well tolerated | – | – | –
CSc1ccc2c(c1)N(CCC1CCCCN1C)c1ccccc1S2 (stereo not drawn) [thioridazine] | – | selectively slow down the growth of or kill pten− cells | little or no effect | –
polymyxin | – | selectively slow down the growth of or kill pten− cells | little or no effect | –
